From patent US20250326769A1, “HETEROAROMATIC MACROCYCLIC ETHER CHEMOTHERAPEUTIC AGENTS” (Nuvalent, Inc., priority 2022, published 2025)

Assays:
Ba/F3 ETV6-TRKB = Ba/F3 ETV6-TRKB (Homo sapiens, UniProt Q16620); experiment: Ba/F3 cell proliferation assay, ETV6-TRKB; type: cell-based; details: Ba/F3 stable cells, 72 hours, CellTiter-Glo; read-out: ETV6-TRKB IC50
Summary of the method: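 Growth inhibition after 72 h compound exposure (3-fold series) was measured by CellTiter-Glo in IL-3-independent Ba/F3 cells stably expressing ETV6-TRKB. A four-parameter logistic fit of percent inhibition versus concentration gave IC50.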

ALK I1171N/D1203N = ALK I1171N/D1203N (Homo sapiens (Human), UniProt Q9UM73, D1203N/I1171N); experiment: Biochemical kinase assay, ALK I1171N/D1203N; details: apparent inhibitory constant, kinase domain, Morrison equation; read-out: ALK-I1171N-D1203N Ki^app
Chain of ALK I1171N/D1203N (Q9UM73 1116-1392 I1171N/D1203N): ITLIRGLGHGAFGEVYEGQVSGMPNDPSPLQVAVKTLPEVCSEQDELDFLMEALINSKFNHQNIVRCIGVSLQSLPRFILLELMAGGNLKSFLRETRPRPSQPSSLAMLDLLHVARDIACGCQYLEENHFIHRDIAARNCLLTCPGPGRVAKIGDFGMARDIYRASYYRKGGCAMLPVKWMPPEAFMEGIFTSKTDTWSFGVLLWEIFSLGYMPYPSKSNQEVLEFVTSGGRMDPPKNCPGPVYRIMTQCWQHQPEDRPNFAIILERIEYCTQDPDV
Procedure: (§1) First, 250 nL of compound dissolved in DMSO (100-fold of the desired concentration) was dispensed into a 384-well plate. A 12.5 μL substrate solution containing ATP (2 mM) and fluorogenic phosphorylation substrate AQT0101 ([…] for ALK and ROS, AssayQuant) or AQT0104 (26 μM for TRKB, AssayQuant) in buffer (50 mM HEPES pH 7.5, […], 0.5 mM EGTA, 10 mM MgCl2) was added and mixed thoroughly. Then, a 12.5 μL kinase solution containing ALK (1.5 nM, Carna, 08-518), ALK I1171N/D1203N (4 nM, SignalChem, custom-made), ROS1 (0.6 nM, Carma, 08-163), ROS1-G2032R (0.5 nM, SignalChem, R14-121BG), or TRKB-wt (1.5 nM, SignalChem, N17-11G) kinase domains in buffer ([…] pH 7.5, 0.01% Brij-[…], 0.4 mg/mL BSA, 0.5 mM EGTA, and 10 mM MgCl2) was added and mixed thoroughly. The plate was sealed and read by SpectraMax Paradigm at λ=485 nm every 2 minutes for 120 minutes at 30° C. Initial rates of reaction (v) were calculated from the change in fluorescence intensity over time during the initial, linear portion of the reaction. Finally, apparent inhibitory constants (Ki^app) were determined from regression of v and I (inhibitor concentration) to Morrison Equation (E=enzyme concentration): […]
(§2) Compound potency can be interpreted by binning Ki^app values against the targets: bin A for high potency, Ki^app<50 nM; bin B for medium potency, 50 nM≤Ki^app<500 nM; and bin C for low potency, Ki^app≥500 nM. […] “nd” means not determined.

Ba/F3 EML4-ALK v1 I1171N = Ba/F3 EML4-ALK v1 I1171N (Homo sapiens (Human), UniProt Q9HC35+Q9UM73, I1171N); experiment: Ba/F3 cell proliferation assay, EML4-ALK v1 I1171N; type: cell-based; details: for IC50: Ba/F3 stable cells, 72 hours, CellTiter-Glo; for ETV6-TRKB / EML4-ALK v1 I1171N: TRKB selectivity, ratio of Ba/F3 IC50 values
Chain of Ba/F3 EML4-ALK v1 I1171N (Q9UM73 other isoform, or with tags, fused parts or gaps I1171N): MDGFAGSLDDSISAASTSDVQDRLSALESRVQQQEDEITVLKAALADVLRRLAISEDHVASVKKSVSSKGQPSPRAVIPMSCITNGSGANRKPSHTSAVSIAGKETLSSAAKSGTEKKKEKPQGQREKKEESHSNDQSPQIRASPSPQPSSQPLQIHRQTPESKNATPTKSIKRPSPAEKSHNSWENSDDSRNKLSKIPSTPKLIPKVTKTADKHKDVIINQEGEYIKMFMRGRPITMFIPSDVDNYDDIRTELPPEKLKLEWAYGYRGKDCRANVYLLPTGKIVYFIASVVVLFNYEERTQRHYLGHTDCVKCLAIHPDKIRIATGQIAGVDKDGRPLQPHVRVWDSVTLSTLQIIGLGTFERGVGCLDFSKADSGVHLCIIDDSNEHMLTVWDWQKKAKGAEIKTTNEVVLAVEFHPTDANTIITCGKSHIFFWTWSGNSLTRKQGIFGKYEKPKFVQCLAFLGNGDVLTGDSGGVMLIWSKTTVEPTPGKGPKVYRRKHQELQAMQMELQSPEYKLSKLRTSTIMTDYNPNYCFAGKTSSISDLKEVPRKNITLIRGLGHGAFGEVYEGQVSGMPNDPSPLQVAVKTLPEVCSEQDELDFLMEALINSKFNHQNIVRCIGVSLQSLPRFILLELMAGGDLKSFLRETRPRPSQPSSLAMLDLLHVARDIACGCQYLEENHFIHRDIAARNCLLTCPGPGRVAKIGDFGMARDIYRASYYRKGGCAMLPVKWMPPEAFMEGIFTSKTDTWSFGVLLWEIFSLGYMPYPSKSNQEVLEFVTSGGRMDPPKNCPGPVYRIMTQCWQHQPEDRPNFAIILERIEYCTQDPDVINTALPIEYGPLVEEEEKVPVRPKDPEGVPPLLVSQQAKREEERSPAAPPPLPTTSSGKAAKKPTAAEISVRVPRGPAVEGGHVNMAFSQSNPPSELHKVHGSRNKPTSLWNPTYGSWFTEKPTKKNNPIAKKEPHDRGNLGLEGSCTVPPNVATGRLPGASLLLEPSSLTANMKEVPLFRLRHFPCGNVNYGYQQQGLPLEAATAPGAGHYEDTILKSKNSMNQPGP
Summary of the method: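 Ba/F3 cells stably transformed with retroviral EML4-ALK v1 I1171N, selected by IL-3 withdrawal and puromycin, grown IL-3-free. Compounds added as 3-fold dilution series, 72 h incubation; viability by CellTiter-Glo luminescence. IC50 from percent inhibition by four-parameter logistic fit, binned A/B/C.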

TRKB-wt = TRKB-wt (Homo sapiens (Human), UniProt Q16620); experiment: Biochemical kinase assay, TRKB-wt; details: apparent inhibitory constant, kinase domain, Morrison equation; read-out: TRKB-wt Ki^app
Chain of TRKB-wt (Q16620 538-807): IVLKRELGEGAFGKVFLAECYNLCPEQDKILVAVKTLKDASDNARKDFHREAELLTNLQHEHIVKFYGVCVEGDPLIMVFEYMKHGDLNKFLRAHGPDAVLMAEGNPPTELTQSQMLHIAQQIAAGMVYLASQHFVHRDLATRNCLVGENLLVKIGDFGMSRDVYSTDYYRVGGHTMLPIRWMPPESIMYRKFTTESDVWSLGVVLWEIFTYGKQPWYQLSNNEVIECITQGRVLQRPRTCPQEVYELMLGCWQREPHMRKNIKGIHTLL
Procedure: as §1, §2

[1] = biological target: Ba/F3 EML4-ALK v1 I1171N/D1203N (Homo sapiens (Human), UniProt Q9HC35+Q9UM73, D1203N/I1171N); experiment: Ba/F3 cell proliferation assay, EML4-ALK v1 I1171N/D1203N; type: cell-based; details: for IC50: Ba/F3 stable cells, 72 hours, CellTiter-Glo
Chain of Ba/F3 EML4-ALK v1 I1171N/D1203N (Q9UM73 other isoform, or with tags, fused parts or gaps I1171N/D1203N): as the sequence (Q9UM73 other isoform, or with tags, fused parts or gaps I1171N) above, with D642N counted along it
Summary of the method: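 Viability read by CellTiter-Glo luminescence after 72 h exposure to a 3-fold compound dilution series, with IC50 from four-parameter logistic regression. Cells were Ba/F3 rendered IL-3-independent through retroviral expression of EML4-ALK v1 I1171N/D1203N, puromycin-selected.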

[2] = TRKB selectivity, ratio of Ba/F3 IC50 values

Chain of Ba/F3 ETV6-TRKB (Q16620 32-822 limits assumed, change not shown): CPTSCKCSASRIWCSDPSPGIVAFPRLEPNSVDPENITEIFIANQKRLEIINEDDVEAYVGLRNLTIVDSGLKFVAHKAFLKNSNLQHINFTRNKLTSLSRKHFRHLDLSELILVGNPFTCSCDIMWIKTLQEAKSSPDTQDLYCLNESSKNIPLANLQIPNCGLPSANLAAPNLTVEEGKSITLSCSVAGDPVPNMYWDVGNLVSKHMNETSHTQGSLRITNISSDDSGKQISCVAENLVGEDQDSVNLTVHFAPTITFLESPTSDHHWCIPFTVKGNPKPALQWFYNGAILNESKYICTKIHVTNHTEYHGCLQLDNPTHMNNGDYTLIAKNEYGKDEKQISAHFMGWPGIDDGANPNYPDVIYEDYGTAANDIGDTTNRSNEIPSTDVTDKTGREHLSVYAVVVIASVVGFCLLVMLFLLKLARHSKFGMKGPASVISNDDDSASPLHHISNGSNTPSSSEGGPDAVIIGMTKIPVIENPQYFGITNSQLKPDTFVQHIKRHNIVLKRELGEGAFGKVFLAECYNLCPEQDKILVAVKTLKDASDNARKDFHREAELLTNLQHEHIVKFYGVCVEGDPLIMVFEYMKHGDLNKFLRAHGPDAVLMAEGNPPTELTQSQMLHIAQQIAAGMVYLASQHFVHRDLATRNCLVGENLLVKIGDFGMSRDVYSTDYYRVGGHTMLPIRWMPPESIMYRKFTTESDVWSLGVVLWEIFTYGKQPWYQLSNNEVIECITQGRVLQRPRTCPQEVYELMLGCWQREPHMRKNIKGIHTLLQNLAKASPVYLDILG

Row | SMILES | IC50 (Ba/F3 ETV6-TRKB) | Ki (ALK I1171N/D1203N) | IC50 (Ba/F3 EML4-ALK v1 I1171N) | Ki (TRKB-wt) | IC50 [1] | ETV6-TRKB / EML4-ALK v1 I1171N (Ba/F3 EML4-ALK v1 I1171N) | ETV6-TRKB / EML4-ALK v1 I1171N/D1203N [1, 2] | Selectivity for Ba/F3 EML4-ALK v1 I1171N-D1203N IC50 over Ba/F3 ETV6-TRKB IC50 ([1]; TRKB selectivity, ratio of Ba/F3 IC50 values, Table 6 bins)
1 | C[C@H]1Oc2cc(cnc2N)-c2c(c(C(=O)N(C)C)nn2CC2CC2)Cc2cccnc2-c2ccc(F)cc21 [Example 10, N,N-dimethyl-(R)-23-amino-3-(cyclopropylmethyl)-17-fluoro-20-methyl-21-oxa-3,4,12,24-tetraazapentacyclo[20.3.1.0^2,^6.0^8,^13.0^14,^19]hexacosa-1(25),2(6),4,8(13),9,11,14,16,18,22(26),23-undecaene-5-carboxamide] | > 500 nM | < 50 nM | 0.1 to 50 nM | 50 to 500 nM | 0.1 to 50 nM | A (bin A for very high selectivity, ratio≥30-fold) | A (bin A for very high selectivity, ratio≥30-fold) | 
2 | C[C@H]1Oc2cc(cnc2N)-c2c(c(C(=O)N3CC(F)(F)C3)nn2CC2CC2)Cc2cn(C)nc2-c2ccc(F)cc21 [Example 13, {(R)-22-amino-3-(cyclopropylmethyl)-16-fluoro-10-methyl-19-methyl-20-oxa-3,4,10,11,23-pentaazapentacyclo[19.3.1.0^2,^6.0^8,^12.0^13,^18]pentacosa-1(24),2(6),4,8,11,13,15, 17,21(25),22-decaen-5-yl}(3,3-difluoro-1-azetidinyl)methanone] | > 500 nM | < 50 nM |  | 50 to 500 nM | 50 to 500 nM |  | C (bin C for moderate selectivity, ratio≥1 but<10) | 
3 | Cc1cc2n(n1)-c1ccc(F)cc1[C@@H](C)Oc1cc(cnc1N)-c1c(C#N)nn(C)c1C2=O [Example 18, (R)-22-amino-16-fluoro-5-methyl-10,19-dimethyl-7-oxo-20-oxa-4,5,11,12,23-pentaazapentacyclo[19.3.1.0^2,^6.0^8,^12.0^13,^18]pentacosa-1(24),2(6),3,8,10,13,15,17,21(25),22-decaene-3-carbonitrile] | > 500 nM | < 50 nM |  | 50 to 500 nM | 50 to 500 nM |  | C (bin C for moderate selectivity, ratio≥1 but<10) | CC (bin CC for the selectivity with the ratio≥5 but<10)
4 | C[C@H]1Oc2cc(cnc2N)-c2c(c(C(N)=O)nn2C2CCC2)Cc2cn(C)nc2-c2ccc(F)cc21 [Example 30, (R)-22-amino-3-cyclobutyl-16-fluoro-10-methyl-19-methyl-20-oxa-3,4,10,11,23-pentaazapentacyclo[19.3.1.0^2,^6.0^8,^12.0^13,^18] pentacosa-1(24),2(6),4,8,11,13,15,17,21(25),22-decaene-5-carboxamide] | > 500 nM | < 50 nM |  | 50 to 500 nM | 50 to 500 nM |  | B (bin B for high selectivity, ratio≥10-fold but<30) | 

Continued, in another order:

Row | IC50 (Ba/F3 ETV6-TRKB) | Ki (ALK I1171N/D1203N) | IC50 (Ba/F3 EML4-ALK v1 I1171N) | Ki (TRKB-wt) | IC50 [1] | SMILES | ETV6-TRKB / EML4-ALK v1 I1171N (Ba/F3 EML4-ALK v1 I1171N) | ETV6-TRKB / EML4-ALK v1 I1171N/D1203N [1, 2] | Selectivity for Ba/F3 EML4-ALK v1 I1171N-D1203N IC50 over Ba/F3 ETV6-TRKB IC50 ([1]; TRKB selectivity, ratio of Ba/F3 IC50 values, Table 6 bins)
5 | 50 to 500 nM | < 50 nM | 0.1 to 50 nM | < 50 nM | 50 to 500 nM | CCn1nc(C(N)=O)c2c1-c1cnc(N)c(c1)O[C@H](C)c1cc(F)ccc1-c1nn(C)cc1C2 [Example 5, (R)-22-amino-3-ethyl-16-fluoro-10-methyl-19-methyl-20-oxa-3,4,10,11,23-pentaazapentacyclo[19.3.1.0^2,6.0^8,12.0^13,18]pentacosa-1(24),2(6),4,8,11.13,15,17,21(25),22-decaene-5-carboxamide] | C (bin C for moderate selectivity, ratio≥1 but<10) | D (bin D for low selectivity, ratio<1) | 
6 | > 500 nM | < 50 nM | 0.1 to 50 nM | ≥ 500 nM | 0.1 to 50 nM | C[C@H]1Oc2cc(cnc2N)-c2c(c(C(=O)N(C)C)nn2CC2CC2)Cc2cn(C)nc2-c2c(F)cc(F)cc21 [Example 32, N,N-dimethyl-(R)-22-amino-3-(cyclopropylmethyl)-14,16-difluoro-10-methyl-19-methyl-20-oxa-3,4,10,11,23-pentaazapentacyclo[19.3.1.0^2,^6.0^8,^12.0^13,^18]pentacosa-1(24),2(6),4,8,11,13,15,17,21(25),22-decaene-5-carboxamide] | A (bin A for very high selectivity, ratio≥30-fold) | A (bin A for very high selectivity, ratio≥30-fold) | 
7 | > 500 nM | < 50 nM | 0.1 to 50 nM | 50 to 500 nM | 0.1 to 50 nM | Cc1ocnc1-c1nn(CC2CC2)c2c1Cc1cccnc1-c1ccc(F)cc1[C@@H](C)Oc1cc-2cnc1N [Example 3, (20R)-3-(cyclopropylmethyl)-17-fluoro-20-methyl-5-(5-methyl-1,3-oxazol-4-yl)-21-oxa-3,4,12,24-tetraazapentacyclo[20.3.1.0^2,^6.0^8,^13.0^14,^19]hexacosa-1(25),2(6),4,8(13),9,11,14,16,18,22(26),23-undecaen-23-amine] | A (bin A for very high selectivity, ratio≥30-fold) | B (bin B for high selectivity, ratio≥10-fold but<30) | 
8 | > 500 nM | < 50 nM |  | ≥ 500 nM | 0.1 to 50 nM | C[C@H]1Oc2cc(cnc2N)-c2c(CC3CC3)nc(C(=O)N(C)C)n2Cc2cn(C)nc2-c2ccc(F)cc21 [Example 41, N,N-dimethyl-(R)-22-amino-3-(cyclopropylmethyl)-16-fluoro-10-methyl-19-methyl-20-oxa-4,6,10,11,23-pentaazapentacyclo[19.3.1.0^2,6.0^8,12.0^13,18]pentacosa-1(24),2,4,8,11,13,15,17,21(25),22-decaene-5-carboxamide] |  | A (bin A for very high selectivity, ratio≥30-fold) | 
9 | > 500 nM | 50 to 500 nM |  | ≥ 500 nM | 50 to 500 nM | CC(=O)c1nn(CC2CC2)c2c1Cc1cn(C)nc1-c1ccc(F)cc1[C@@H](C)Oc1cc-2cnc1N [Example 16, 1-[(19R)-22-amino-3-(cyclopropylmethyl)-16-fluoro-10,19-dimethyl-20-oxa-3.4.10,11,23-pentaazapentacyclo[19.3.1.0^2,6.0^8,12.0^13,18]pentacosa-1(24),2(6),4,8,11.13,15,17,21(25),22-decaen-5-yl]ethan-1-one] |  | C (bin C for moderate selectivity, ratio≥1 but<10) | 
10 | > 500 nM | < 50 nM |  | ≥ 500 nM | 50 to 500 nM | C[C@H]1Oc2cc(cnc2N)-c2c(c(C(=O)N3CCC(F)(F)C3)nn2CC2CC2)Cc2cn(C)nc2-c2ccc(F)cc21 [Example 12, {(R)-22-amino-3-(cyclopropylmethyl)-16-fluoro-10-methyl-19-methyl-20-oxa-3,4,10,11,23-pentaazapentacyclo[19.3.1.0^2,^6.0^8,^12.013,18]pentacosa-1(24),2(6),4,8,11,13,15,17,21(25),22-decaen-5-yl}(3,3-difluoro-1-pyrrolidinyl)methanone] |  | C (bin C for moderate selectivity, ratio≥1 but<10) | 
